# Laboratory results published in patent US8889906B2, “Tetralin and indane derivatives and uses thereof” (Roche Palo Alto LLC, priority 2004, dated 2014).
# Counter-ions that a name gives are not always drawn.
# Legend:
# [1] = target: T1, recombinant human 5-HT2A receptor (Homo sapiens, UniProt P28223); assay: 5-HT2A radioligand binding ([3H]Ketanserin competition); details: [3H]Ketanserin displacement, membranes of CHO-K1 cells expressing recombinant human 5-HT2A receptor, 32° C.; read-out: pKi for 5-HT2A (converted)
# T1 construct: expressed in transfected cells
# T1 sequence (P28223 whole entry): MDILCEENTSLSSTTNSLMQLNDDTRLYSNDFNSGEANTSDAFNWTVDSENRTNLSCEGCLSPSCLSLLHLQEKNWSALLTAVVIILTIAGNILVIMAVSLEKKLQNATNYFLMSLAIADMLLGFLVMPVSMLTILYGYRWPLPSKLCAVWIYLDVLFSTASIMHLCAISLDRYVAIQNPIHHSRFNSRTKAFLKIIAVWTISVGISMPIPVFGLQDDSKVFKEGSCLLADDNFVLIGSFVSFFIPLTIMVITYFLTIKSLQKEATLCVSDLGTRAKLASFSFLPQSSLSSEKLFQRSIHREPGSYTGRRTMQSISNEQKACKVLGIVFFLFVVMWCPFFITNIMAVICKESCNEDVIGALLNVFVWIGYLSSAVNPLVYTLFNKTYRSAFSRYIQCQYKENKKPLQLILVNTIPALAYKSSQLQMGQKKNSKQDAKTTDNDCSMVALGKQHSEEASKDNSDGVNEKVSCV
# Procedure: (§1) The binding activity of compounds of this invention in vitro was determined as follows. Duplicate determinations of 5-HT6 ligand affinity were made by competing for binding of [^3H]LSD in cell membranes derived from HEK293 cells stably expressing recombinant human 5-HT6 receptor. Duplicate determinations of 5-HT2A ligand affinity were made by competing for binding of [^3H]Ketanserin (3-(2-(4-(4-fluorobenzoyl)piperidinol)ethyl)-2,4(1H,3H)-quinazolinedione) in cell membranes derived from CHO-K1 cells stably expressing recombinant human 5-HT2A receptor. Membranes were prepared from HEK 293 cell lines by the method described by Monsma et al., Molecular Pharmacology, Vol. 43 pp. 320-327 (1993), and from CHO-K1 cell lines as described by Bonhaus et al., Br J Pharmacol. June; 115(4):622-8 (1995).
# (§2) For estimation of affinity at the 5-HT6 receptor, all determinations were made in assay buffer containing 50 mM Tris-HCl, 10 mM MgSO4, 0.5 mM EDTA, 1 mM ascorbic acid, pH 7.4 at 37° C., in a 250 microliter reaction volume. […]
# (§3) Assay tubes containing [^3H] […] Ketanserin were determined as radioactive counts per minute using Packard TopCount.
# (§4) Displacement of [^3H]LSD or [^3H]Ketanserin from the binding sites was quantified by fitting concentration-binding data to a 4-parameter logistic equation: […]
# [2] = target: T2, recombinant human 5-HT6 receptor (Homo sapiens, UniProt P50406); assay: 5-HT6 radioligand binding ([3H]LSD competition); details: [3H]LSD displacement, membranes of HEK293 cells expressing recombinant human 5-HT6 receptor, 37° C.; read-out: pKi for 5-HT6 (converted)
# T2 construct: expressed in transfected cells
# T2 sequence (P50406 whole entry): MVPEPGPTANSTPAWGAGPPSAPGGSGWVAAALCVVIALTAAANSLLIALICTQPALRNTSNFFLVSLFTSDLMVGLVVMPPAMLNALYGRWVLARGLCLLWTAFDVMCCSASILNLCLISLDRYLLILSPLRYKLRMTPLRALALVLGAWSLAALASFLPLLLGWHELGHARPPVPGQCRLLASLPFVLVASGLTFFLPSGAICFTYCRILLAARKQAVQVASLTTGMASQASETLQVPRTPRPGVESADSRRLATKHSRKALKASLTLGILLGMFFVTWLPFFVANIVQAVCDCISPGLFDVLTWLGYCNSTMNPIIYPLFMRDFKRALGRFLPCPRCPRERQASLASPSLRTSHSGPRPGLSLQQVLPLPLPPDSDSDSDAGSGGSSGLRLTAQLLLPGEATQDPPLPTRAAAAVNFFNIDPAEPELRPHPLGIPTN
# Procedure: as §1, §2, §3, §4
melting point [°C],Compound,other results
265 to 266,"CNC[C@@H]1CCCc2cc(S(=O)(=O)c3cccc(OC)c3)ccc21 (as salt: HCl) [Compound 50, (R)-[6-(3-Methoxy-benzenesulfonyl)-1,2,3,4-tetrahydro-naphthalen-1-ylmethyl]-methyl-amine]",–
140 to 145,"CC1(C)CN=C(NCC2CCCc3ccc(S(=O)(=O)c4ccccc4)cc32)NC1 (stereo not drawn) [Compound 11, (7-Benzenesulfonyl-1,2,3,4-tetrahydro-naphthalen-1-ylmethyl)-(5,5-dimethyl-1,4,5,6-tetrahydro-pyrimidin-2-yl)-amine]",–
–,"CC(=N)NCC1CCCc2cc(S(=O)(=O)c3ccccc3)ccc21 (stereo not drawn) [N-(6-Benzenesulfonyl-1,2,3,4-tetrahydro-naphthalen-1-ylmethyl)-acetamidine]",Ki [1]: ~0.282 nM
212 to 213,"N#Cc1cccc(S(=O)(=O)c2ccc3c(c2)CCC[C@H]3CN)c1 (as salt: oxalate) [Compound 52, (R)-3-(5-Aminomethyl-5,6,7,8-tetrahydro-naphthalene-2-sulfonyl)-benzonitrile]",–
–,"N=C(N)CCC1CCCc2cc(S(=O)(=O)c3ccccc3)ccc21 (stereo not drawn) [3-(6-Benzenesulfonyl-1,2,3,4-tetrahydro-naphthalen-1-yl)-propionamidine]",Ki [2]: ~0.141 nM
146 to 147,"CNC[C@H]1CCCc2cc(S(=O)(=O)c3ccccc3)ccc21 (as salt: TFA) [Compound 40, (S)-(6-Benzenesulfonyl-1,2,3,4-tetrahydro-naphthalen-1-ylmethyl)-methyl-amine]",–
